From the NIST ThermoML archive (doi:10.1016/j.jct.2006.05.006)
± gives the expanded uncertainty stated by the source.

Assays:
[1] = 101 kPa, Liquid
[2] = refractive index (Na D-line) (dimensionless); conditions: 293.1 K; 101.33 kPa; Liquid; Standard Abbe refractometry
[3] = xn = mol fraction of the nth substance listed; conditions: 101 kPa, Liquid

SMILES: c1ccccc1 [benzene]
- mass density ([1]; 293.15 K): 878.96 ± 0.64 kg/m3
- mass density ([1]; 303.15 K): 868.21 ± 0.67 kg/m3
- mass density ([1]; 313.15 K): 857.4 ± 0.71 kg/m3
- mass density ([1]; 323.15 K): 846.55 ± 0.74 kg/m3
- mass density ([1]; 333.15 K): 835.66 ± 0.78 kg/m3
- mass density ([1]; 343.15 K): 824.71 ± 0.81 kg/m3
- refractive index [2]: 1.5009 ± 0.0007

SMILES: CN1CCCC1=O [N-methylpyrrolidone] + CCc1ccccc1
- mass density ([3]; 293.15 K, x2 = 0): 1032.66 ± 0.37 kg/m3
- mass density ([3]; 303.15 K, x2 = 0): 1023.42 ± 0.34 kg/m3
- mass density ([3]; 313.15 K, x2 = 0): 1014.27 ± 0.31 kg/m3
- mass density ([3]; 323.15 K, x2 = 0): 1005.62 ± 0.28 kg/m3
- mass density ([3]; 333.15 K, x2 = 0): 996.28 ± 0.28 kg/m3
- mass density ([3]; 343.15 K, x2 = 0): 987.39 ± 0.31 kg/m3
- mass density ([3]; 353.15 K, x2 = 0): 978.62 ± 0.33 kg/m3

SMILES: c1ccccc1 [benzene] + CN1CCCC1=O
- mass density ([3]; 293.15 K, x1 = 1): 878.96 ± 0.64 kg/m3
- mass density ([3]; 303.15 K, x1 = 1): 868.21 ± 0.67 kg/m3
- mass density ([3]; 313.15 K, x1 = 1): 857.4 ± 0.71 kg/m3
- mass density ([3]; 323.15 K, x1 = 1): 846.55 ± 0.74 kg/m3
- mass density ([3]; 333.15 K, x1 = 1): 835.66 ± 0.78 kg/m3
- mass density ([3]; 343.15 K, x1 = 1): 824.71 ± 0.81 kg/m3

SMILES: Cc1ccccc1 [toluene] + CN1CCCC1=O
- mass density ([3]; 293.15 K, x1 = 1): 866.8 ± 1.9 kg/m3
- mass density ([3]; 303.15 K, x1 = 1): 857.53 ± 2 kg/m3
- mass density ([3]; 313.15 K, x1 = 1): 848.23 ± 2 kg/m3
- mass density ([3]; 323.15 K, x1 = 1): 838.91 ± 2.1 kg/m3
- mass density ([3]; 333.15 K, x1 = 1): 829.55 ± 2.1 kg/m3
- mass density ([3]; 343.15 K, x1 = 1): 820.17 ± 2.2 kg/m3
- mass density ([3]; 353.15 K, x1 = 1): 810.77 ± 2.2 kg/m3

SMILES: CCc1ccccc1 [ethylbenzene]
- mass density ([1]; 293.15 K): 867.28 ± 0.81 kg/m3
- mass density ([1]; 303.15 K): 858.36 ± 0.84 kg/m3
- mass density ([1]; 313.15 K): 849.38 ± 0.86 kg/m3
- mass density ([1]; 323.15 K): 840.35 ± 0.89 kg/m3
- mass density ([1]; 333.15 K): 831.25 ± 0.91 kg/m3
- mass density ([1]; 343.15 K): 822.11 ± 0.94 kg/m3
- mass density ([1]; 353.15 K): 812.9 ± 0.97 kg/m3
- refractive index [2]: 1.4962 ± 0.0008

SMILES: Cc1ccccc1 [toluene]
- mass density ([1]; 293.15 K): 866.8 ± 1.9 kg/m3
- mass density ([1]; 303.15 K): 857.53 ± 2 kg/m3
- mass density ([1]; 313.15 K): 848.23 ± 2 kg/m3
- mass density ([1]; 323.15 K): 838.91 ± 2.1 kg/m3
- mass density ([1]; 333.15 K): 829.55 ± 2.1 kg/m3
- mass density ([1]; 343.15 K): 820.17 ± 2.2 kg/m3
- mass density ([1]; 353.15 K): 810.77 ± 2.2 kg/m3
- refractive index [2]: 1.4965 ± 0.0008

SMILES: CN1CCCC1=O [N-methylpyrrolidone]
- mass density ([1]; 293.15 K): 1032.66 ± 0.37 kg/m3
- mass density ([1]; 303.15 K): 1023.42 ± 0.34 kg/m3
- mass density ([1]; 313.15 K): 1014.27 ± 0.31 kg/m3
- mass density ([1]; 323.15 K): 1005.62 ± 0.28 kg/m3
- mass density ([1]; 333.15 K): 996.28 ± 0.28 kg/m3
- mass density ([1]; 343.15 K): 987.39 ± 0.31 kg/m3
- mass density ([1]; 353.15 K): 978.62 ± 0.65 kg/m3
- refractive index [2]: 1.4677 ± 0.0007
